{"source": "patent US11607422B2", "about": "“Uttroside B and derivatives thereof as therapeutics for hepatocellular carcinoma” (Rajiv Gandhi Centre for Biotechnology, an Autonomous …, priority 2016, dated 2023)", "key": {"A375": {"system": "A375", "test": "MTT cell viability assay in A375 cells", "assay_type": "cell-based", "conditions": "72 h", "protocol": "FIG. 2A is a graph comparison of IC50 of Uttroside B in a panel of cancer cells of different origin. The cancer cell lines HeLa, A375, HepG2, MDA-MB-231, HL 60, A549 and HCT116 were treated with Uttroside B as indicated, incubated for 72 h and the cell viability was assessed by MTT assay. FIG. 2B is a graph showing dose dependent effect of Uttroside B in the liver cancer cell lines and in normal immortalized hepatocytes. The liver cancer cell lines HepG2, Hep3B, SKHEP-1, Huh-7 and normal hepatocytes (Chang liver), were treated with Uttroside B incubated for 72 h and the cell viability was assessed by MTT assay. FIG. 2C is a graph comparison of IC50 of Uttroside B with sorafenib. HepG2 cells were treated with Uttroside B as indicated, incubated for 72 h, and the cell viability was assessed by MTT assay. […] The clones developed were counted and plotted as a graph. Colony containing more than four cells was counted as one clone. […]\nMTT [3-(4,5-dimethylthiazole-2-yl)-2,5-diphenyltetrazolium bromide] assay is a standard colorimetric assay, suitable for analyzing proliferation, viability, and cytotoxicity. […] After overnight incubation, cells were treated with different concentrations of organic extracts (25-250 μg/ml) of S. nigrum and the isolated compound Uttroside B (250-1250 nM) for 72 h and cytotoxicity was measured. […]"}, "[1]": {"system": "autophagy related proteins in Hep3B cells", "test": "Western blot of autophagy related proteins in Hep3B cells", "assay_type": "cell-based", "conditions": "time dependent", "protocol": "Western blot analysis. Approximately 0.5×10^6 cells were grown on 60 mm culture plates and exposed to drugs as indicated for the desired time. The cells were then scraped out, washed in ice cold 1× PBS and pelleted down at 13000 rpm for 2 min. The pelleted cells were suspended in 150 μL of ice-cold whole cell lysis buffer[(20 mMTris of pH 7.4, 250 mM NaCl, 2 mM EDTA, 0.1% Triton, 1 mM DTT (1,4-dithiothreitol), 0.5 mM PMSF, 4 mM sodium orthovanadate, aprotinin (5 mg m/L) and leupeptin (5 mg m/L)] and kept in ice for 30 min, with intermittent vortexing every 5 min. After incubation, the lysate was centrifuged at 13000 rpm for 10 min at 4° C. and the supernatant was collected. The total protein content in the lysate was estimated by Bradford's method, and was then denatured by boiling with 5× loading dye before separating the proteins by SDSpolyacrylamidegel electrophoresis (SDS-PAGE). […]"}}, "data": [{"compound": "C[C@H](CC[C@@]1(O)O[C@H]2C[C@H]3[C@@H]4CC[C@H]5C[C@@H](O[C@@H]6O[C@H](CO)[C@H](O[C@@H]7O[C@H](CO)[C@@H](O)[C@H](O[C@@H]8OC[C@@H](O)[C@H](O)[C@H]8O)[C@H]7O[C@@H]7O[C@H](CO)[C@@H](O)[C@H](O)[C@H]7O)[C@H](O)[C@H]6O)CC[C@]5(C)[C@H]4CC[C@]3(C)[C@H]2[C@@H]1C)CO[C@@H]1O[C@H](CO)[C@@H](O)[C@H](O)[C@H]1O", "note": "[Uttroside B]", "values": [{"measurement": "IC50", "setting": "A375", "value": 1.6, "unit": "µM"}, {"measurement": "expression of autophagy related proteins, Hep3B", "setting": "[1]", "value": "induced Atg5, Atg7 and LC3 in a time dependent manner"}]}]}
